US10189854B2, “Substituted pyrimidine compounds” (Grünenthal GmbH, priority 2014, dated 2019)

Each molecule was assayed against human PDE4B1 (Homo sapiens (Human), UniProt Q07343) (assay: cAMP HTRF assay to determine the activity of hPDE4B1). Conditions: IC50 inhibition of PDE4B; human recombinant PDE4B1, cAMP HTRF assay.
Type: biochemical
In short: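 Recombinant human PDE4B1 expressed in Sf9 cells (4.8 U) was incubated with 40 nM cAMP for 30 min at room temperature in Tris buffer, pH 7.8, with MgCl2, DTT and Tween 20. HTRF detection of remaining cAMP followed, with 1 mM IBMX stop, read 60 min later as the 665/620 nm ratio. Results are % inhibition versus control.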

Sequence of human PDE4B1 (Q07343 whole entry): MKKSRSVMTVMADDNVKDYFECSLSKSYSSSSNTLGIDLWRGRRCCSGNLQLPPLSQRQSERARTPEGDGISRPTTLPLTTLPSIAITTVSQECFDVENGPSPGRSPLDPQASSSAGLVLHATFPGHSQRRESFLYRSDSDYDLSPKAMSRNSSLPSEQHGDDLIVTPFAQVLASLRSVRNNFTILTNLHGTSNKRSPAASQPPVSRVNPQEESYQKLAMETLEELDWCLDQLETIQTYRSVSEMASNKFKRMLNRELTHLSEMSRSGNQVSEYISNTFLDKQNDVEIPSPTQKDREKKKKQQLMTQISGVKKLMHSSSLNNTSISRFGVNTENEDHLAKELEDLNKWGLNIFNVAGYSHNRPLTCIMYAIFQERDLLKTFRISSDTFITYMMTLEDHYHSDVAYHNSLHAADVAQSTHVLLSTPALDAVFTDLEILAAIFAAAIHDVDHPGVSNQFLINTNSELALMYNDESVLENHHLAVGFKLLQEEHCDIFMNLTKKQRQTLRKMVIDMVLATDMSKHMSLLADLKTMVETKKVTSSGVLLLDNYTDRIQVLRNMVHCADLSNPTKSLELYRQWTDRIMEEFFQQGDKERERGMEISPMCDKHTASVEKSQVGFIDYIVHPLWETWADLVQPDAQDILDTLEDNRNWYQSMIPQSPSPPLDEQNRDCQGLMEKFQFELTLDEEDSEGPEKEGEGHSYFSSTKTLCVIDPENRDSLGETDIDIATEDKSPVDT

| Structure (SMILES) | IC50 [µM] |
| --- | --- |
| Cc1cc(-c2cnc(N3CC4(CC4)c4ccc(C(=O)N5CCOCC5)cc43)nc2)ccn1 [Compound 159, [1-[5-(2-Methyl-pyridin-4-yl)-pyrimidin-2-yl]-spiro[1,2-dihydro-indole-3,1′-cyclopropane]-6-yl]-morpholin-4-yl-methanone] | < 0.1 |
| O=C(c1ccc2c(c1)N(c1ncc(-c3ccnc(F)c3)cn1)CC21CC1)N1CCOCC1 [Compound 160, [1-[5-(2-Fluoro-pyridin-4-yl)-pyrimidin-2-yl]-spiro[1,2-dihydro-indole-3,1′-cyclopropane]-6-yl]-morpholin-4-yl-methanone] | < 0.1 |
| O=C(c1ccc2c(c1)N(c1ncc(-c3cncnc3)cn1)CC21CC1)N1CCOCC1 [Compound 162, Morpholin-4-yl-[1-(5-pyrimidin-5-yl-pyrimidin-2-yl)-spiro[1,2-dihydro-indole-3,1′-cyclopropane]-6-yl]-methanone] | < 0.1 |
| NC(=O)c1ccnc(-c2cnc(N3CC4(CC4)c4ccc(C(=O)N5CCOCC5)cc43)nc2)c1 [Compound 164, 2-[2-[6-(Morpholine-4-carbonyl)-spiro[1,2-dihydro-indole-3,1′-cyclopropane]-1-yl]-pyrimidin-5-yl]-pyridine-4-carboxylic acid amide] | < 0.1 |
| O=C(c1ccc2c(c1)N(c1ncc(-c3ccc(F)cn3)cn1)CC21CC1)N1CCOCC1 [Compound 165, [1-[5-(5-Fluoro-pyridin-2-yl)-pyrimidin-2-yl]-spiro[1,2-dihydro-indole-3,1′-cyclopropane]-6-yl]-morpholin-4-yl-methanone] | < 0.1 |

Other lines, results leading:

| IC50 [µM] | Structure (SMILES) |
| --- | --- |
| < 0.1 | Cc1cc(-c2cnc(N3CC4(CC4)c4ccc(C(=O)N5CCOCC5)cc43)nc2)sn1 [Compound 155, [1-[5-(3-Methyl-isothiazol-5-yl)-pyrimidin-2-yl]-spiro[1,2-dihydro-indole-3,1′-cyclopropane]-6-yl]-morpholin-4-yl-methanone] |
| < 0.1 | NC(=O)c1ccc(-c2cnc(N3CC4(CC4)c4ccc(C(=O)N5CCOCC5)cc43)nc2)o1 [Compound 156, 5-[2-[6-(Morpholine-4-carbonyl)-spiro[1,2-dihydro-indole-3,1′-cyclopropane]-1-yl]-pyrimidin-5-yl]-furan-2-carboxylic acid amide] |
| < 0.1 | O=C(c1ccc2c(c1)N(c1ncc(-c3cncc(F)c3)cn1)CC21CC1)N1CCOCC1 [Compound 157, [1-[5-(5-Fluoro-pyridin-3-yl)-pyrimidin-2-yl]-spiro[1,2-dihydro-indole-3,1′-cyclopropane]-6-yl]-morpholin-4-yl-methanone] |
| < 0.1 | CC(=O)Nc1ccc(-c2cnc(N3CC4(CC4)c4ccc(C(=O)N5CCOCC5)cc43)nc2)s1 [Compound 158, N-[5-[2-[6-(Morpholine-4-carbonyl)-spiro[1,2-dihydro-indole-3,1′-cyclopropane]-1-yl]-pyrimidin-5-yl]-thiophen-2-yl]-acetamide] |
| < 0.1 | N#Cc1csc(-c2cnc(N3CC4(CC4)c4ccc(C(=O)N5CCOCC5)cc43)nc2)c1 [Compound 161, 5-[2-[6-(Morpholine-4-carbonyl)-spiro[1,2-dihydro-indole-3,1′-cyclopropane]-1-yl]-pyrimidin-5-yl]-thiophene-3-carbonitrile] |
| < 0.1 | O=C(c1ccc2c(c1)N(c1ncc(-c3cc(F)cnc3F)cn1)CC21CC1)N1CCOCC1 [Compound 163, [1-[5-(2,5-Difluoro-pyridin-3-yl)-pyrimidin-2-yl]-spiro[1,2-dihydro-indole-3,1′-cyclopropane]-6-yl]-morpholin-4-yl-methanone] |
| < 0.1 | O=C(c1ccc2c(c1)N(c1ncc(-c3c(F)cncc3F)cn1)CC21CC1)N1CCOCC1 [Compound 166, [1-[5-(3,5-Difluoro-pyridin-4-yl)-pyrimidin-2-yl]-spiro[1,2-dihydro-indole-3,1′-cyclopropane]-6-yl]-morpholin-4-yl-methanone] |
